Data on 15 compounds can be found in patent US8283353B2, “Fused ring compound and use thereof” (Takeda Pharmaceutical Company Limited, priority 2009, dated 2012).

Each structure is given as a SMILES string.

Usually IC50 stands for the concentration needed to halve the response being measured. A low value points to greater potency in that assay.

In assay [1] the target is T1, human PPARγ (Homo sapiens, UniProt P37231).
T1 construct: expressed in transfected cells
T1 sequence (P37231 1-477 isoform P37231-2): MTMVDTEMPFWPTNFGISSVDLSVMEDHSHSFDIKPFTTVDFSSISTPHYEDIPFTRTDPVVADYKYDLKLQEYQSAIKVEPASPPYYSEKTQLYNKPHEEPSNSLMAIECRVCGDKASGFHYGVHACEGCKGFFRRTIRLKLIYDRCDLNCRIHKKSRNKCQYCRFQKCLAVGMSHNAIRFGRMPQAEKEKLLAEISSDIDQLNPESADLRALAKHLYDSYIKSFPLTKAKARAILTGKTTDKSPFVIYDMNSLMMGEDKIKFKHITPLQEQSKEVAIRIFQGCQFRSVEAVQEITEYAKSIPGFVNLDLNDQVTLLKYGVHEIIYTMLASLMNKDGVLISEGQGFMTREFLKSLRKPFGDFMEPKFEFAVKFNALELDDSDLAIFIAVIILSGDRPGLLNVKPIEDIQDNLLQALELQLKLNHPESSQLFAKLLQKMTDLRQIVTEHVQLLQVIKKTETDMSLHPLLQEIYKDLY
T1 sequence (P19793 1-462 partner): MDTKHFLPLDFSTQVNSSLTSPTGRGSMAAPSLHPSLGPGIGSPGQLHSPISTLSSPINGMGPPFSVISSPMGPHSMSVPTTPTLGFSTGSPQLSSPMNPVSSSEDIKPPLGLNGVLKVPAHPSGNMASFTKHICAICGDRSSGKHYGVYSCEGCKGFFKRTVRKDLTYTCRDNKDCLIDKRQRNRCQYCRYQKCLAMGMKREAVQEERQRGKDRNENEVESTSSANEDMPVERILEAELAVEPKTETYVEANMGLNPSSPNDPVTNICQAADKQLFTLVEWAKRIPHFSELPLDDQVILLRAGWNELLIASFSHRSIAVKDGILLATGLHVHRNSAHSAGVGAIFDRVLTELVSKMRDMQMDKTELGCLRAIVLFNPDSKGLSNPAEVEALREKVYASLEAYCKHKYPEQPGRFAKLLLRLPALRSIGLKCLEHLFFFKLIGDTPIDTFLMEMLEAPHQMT
The assay is described as follows: PPARγ agonistic activity: luciferase reporter assay in PPARγ:RXRα:4ERPP/CHO-K1 cells. The class given is cell-based. To be noted: CHO-K1, test compound 10^−6 M; luciferase activity of control compound X (1 μM) = 100%, non-administration group = 0%. A digest of the protocol:
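Activity is expressed relative to untreated cells (0%) and 1 μM reference compound X (100%), from luciferase luminescence. Reporter line: PPARγ:RXRα:4ERPP/CHO-K1, exposed to compound for one day at 37 °C in F12 medium containing 0.1% fatty-acid-free BSA.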
In general terms: In a reporter assay the amount or activity of a reporter protein is the signal.

The target in assay [2] is T2, human AT1 receptor (Homo sapiens, UniProt P30556).
T2 construct: expressed in transfected cells; membrane fraction
T2 sequence (P30556 1-359): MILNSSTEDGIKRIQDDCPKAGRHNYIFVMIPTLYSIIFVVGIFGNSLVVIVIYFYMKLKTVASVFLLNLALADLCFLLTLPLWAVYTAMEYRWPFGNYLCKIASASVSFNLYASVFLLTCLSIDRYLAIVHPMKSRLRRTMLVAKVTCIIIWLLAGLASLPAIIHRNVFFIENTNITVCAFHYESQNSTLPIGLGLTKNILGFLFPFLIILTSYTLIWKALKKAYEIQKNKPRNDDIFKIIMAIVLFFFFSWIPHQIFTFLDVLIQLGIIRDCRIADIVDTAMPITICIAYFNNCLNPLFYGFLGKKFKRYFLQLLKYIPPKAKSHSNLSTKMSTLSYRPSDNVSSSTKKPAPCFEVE
The assay is described as follows: AT1 receptor antagonistic activity: [125I]-angiotensin II binding assay on human AT1 receptor-expressing CHO-K1 cellular membrane fraction. The note with it: 22.5 pM [125I]-angiotensin II, 1 hr room temperature. The method, boiled down: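 Competition binding used radiolabelled angiotensin II on stably transfected CHO-K1 membrane fractions in Tris pH 7.4/MgCl2 buffer, optionally containing 0.3 mg/mL fatty acid-free BSA, 1 hr at room temperature. Filtration onto GF/C separated bound tracer, and nonspecific binding was measured with candesartan.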

In assay [1], `CCCCc1c(Cc2ccc(-c3ccccc3-c3noc(=O)[nH]3)cc2)c(=O)n([C@H]2CC[C@H](OCC(C)(C)O)CC2)c2ncnn12` [Example 232, 7-butyl-4-[trans-4-(2-hydroxy-2-methylpropoxy)cyclohexyl]-6-{[2′-(5-oxo-4,5-dihydro-1,2,4-oxadiazol-3-yl)biphenyl-4-yl]methyl}[1,2,4]triazolo[1,5-a]pyrimidin-5(4H)-one] showed an activation at 1 µM of 35%. In assay [2], this compound came in with an IC50 of 2.1 nM.
As to `CCCc1c(Cc2ccc(-c3ccccc3-c3noc(=O)[nH]3)cc2F)c(=O)n([C@H]2CC[C@H](OCC(C)(C)O)CC2)c2ncnn12` [Example 233, 6-{[3-fluoro-2′-(5-oxo-4,5-dihydro-1,2,4-oxadiazol-3-yl)biphenyl-4-yl]methyl}-4-[trans-4-(2-hydroxy-2-methylpropoxy)cyclohexyl]-7-propyl[1,2,4]triazolo[1,5-a]pyrimidin-5(4H)-one], the activation at 1 µM in assay [1] was 26%. Besides, the concentration for half-maximal inhibition (IC50) in assay [2] turned out to be 1.9 nM.
Turning to `CCCc1c(Cc2ccc(-c3ccccc3-c3noc(=O)[nH]3)cc2)c(=O)n([C@H]2CC[C@H](OC(C)C#N)CC2)c2ncnn12` (stereo partly drawn) [Example 244, 2-({trans-4-[5-oxo-6-{[2′-(5-oxo-4,5-dihydro-1,2,4-oxadiazol-3-yl)biphenyl-4-yl]methyl}-7-propyl[1,2,4]triazolo[1,5-a]pyrimidin-4(5H)-yl]cyclohexyl}oxy)propanenitrile], in assay [1], the activation at 1 µM is 29%. Also, the IC50 in assay [2] is 2.3 nM.
In assay [1], `CCCc1c(Cc2ccc(-c3ccccc3-c3noc(=O)[nH]3)cc2F)c(=O)n([C@H]2CC[C@H](OC(C)C#N)CC2)c2nc(C)nn12` (stereo partly drawn) [Example 249, 2-({trans-4-[6-{[3-fluoro-2′-(5-oxo-4,5-dihydro-1,2,4-oxadiazol-3-yl)biphenyl-4-yl]methyl}-2-methyl-5-oxo-7-propyl[1,2,4]triazolo[1,5-a]pyrimidin-4(5H)-yl]cyclohexyl}oxy)propanenitrile] yielded an activation at 1 µM of 35%. Moreover, the concentration for half-maximal inhibition (IC50) in assay [2] was 2.5 nM.
In assay [1], `CCCc1c(Cc2ccc(-c3ccccc3-c3noc(=O)[nH]3)cc2F)c(=O)n([C@H]2CC[C@H](OCC3(O)CCC3)CC2)c2ncnn12` [Example 252, 6-{[3-fluoro-2′-(5-oxo-4,5-dihydro-1,2,4-oxadiazol-3-yl)biphenyl-4-yl]methyl}-4-{trans-4-[(1-hydroxycyclobutyl)methoxy]cyclohexyl}-7-propyl[1,2,4]triazolo[1,5-a]pyrimidin-5(4H)-one] had an activation at 1 µM of 40%. Besides, the IC50 in assay [2] stood at 2.4 nM.
The matching figures for `CCCc1c(Cc2ccc(-c3ccccc3-c3noc(=O)[nH]3)cc2)c(=O)n([C@H]2C[C@H](OCC(O)(CC)CC)C2)c2ncnn12` [Example 259, 4-[trans-3-(2-ethyl-2-hydroxybutoxy)cyclobutyl]-6-{[2′-(5-oxo-4,5-dihydro-1,2,4-oxadiazol-3-yl)biphenyl-4-yl]methyl}-7-propyl[1,2,4]triazolo[1,5-a]pyrimidin-5(4H)-one]: 28% and 2.3 nM.
The matching figures for `CCCc1c(Cc2ccc(-c3ccccc3-c3noc(=O)[nH]3)cc2)c(=O)n(C2CCOCC2)c2ccnn12` [Example 269, 6-{[2′-(5-oxo-4,5-dihydro-1,2,4-oxadiazol-3-yl)biphenyl-4-yl]methyl}-7-propyl-4-(tetrahydro-2H-pyran-4-yl)pyrazolo[1,5-a]pyrimidin-5(4H)-one]: 16% and 2.2 nM.
`CCCc1c(Cc2ccc(-c3ccccc3-c3noc(=O)[nH]3)cc2)c(=O)n([C@H]2CC[C@H](Oc3ccc(OC)cc3)CC2)c2ncnn12` [Example 271, 4-[trans-4-(4-methoxyphenoxy)cyclohexyl]-6-{[2′-(5-oxo-4,5-dihydro-1,2,4-oxadiazol-3-yl)biphenyl-4-yl]methyl}-7-propyl[1,2,4]triazolo[1,5-a]pyrimidin-5(4H)-one] had an activation at 1 µM in assay [1] of 43%. Also, in assay [2], the half-inhibitory concentration (IC50) was 2.4 nM.
The like results for `CCCc1c(Cc2ccc(-c3ccccc3-c3noc(=O)[nH]3)cc2)c(=O)n([C@H]2CC[C@@H](Oc3ccc(OC)cc3)CC2)c2ncnn12` [Example 272, 4-[cis-4-(4-methoxyphenoxy)cyclohexyl]-6-{[2′-(5-oxo-4,5-dihydro-1,2,4-oxadiazol-3-yl)biphenyl-4-yl]methyl}-7-propyl[1,2,4]triazolo[1,5-a]pyrimidin-5(4H)-one] were, in that order, 28% and 2.8 nM.
Take `CCCc1c(Cc2ccc(-c3ccccc3-c3noc(=O)[nH]3)cc2)c(=O)n([C@H]2CC[C@H](Oc3ccc(O)cc3)CC2)c2ncnn12` [Example 273, 4-[trans-4-(4-hydroxyphenoxy)cyclohexyl]-6-{[2′-(5-oxo-4,5-dihydro-1,2,4-oxadiazol-3-yl)biphenyl-4-yl]methyl}-7-propyl[1,2,4]triazolo[1,5-a]pyrimidin-5(4H)-one]: in assay [1], the activation at 1 µM is 48%. Moreover, the half-maximal inhibitory concentration (IC50) in assay [2] is 1.7 nM.
The matching figures for `CCCc1c(Cc2ccc(-c3ccccc3-c3noc(=O)[nH]3)cc2)c(=O)n([C@H]2CC[C@@H](Oc3ccc(O)cc3)CC2)c2ncnn12` [Example 274, 4-[cis-4-(4-hydroxyphenoxy)cyclohexyl]-6-{[2′-(5-oxo-4,5-dihydro-1,2,4-oxadiazol-3-yl)biphenyl-4-yl]methyl}-7-propyl[1,2,4]triazolo[1,5-a]pyrimidin-5(4H)-one]: 42% and 2.2 nM.
The like results for `CCCc1c(Cc2ccc(-c3ccccc3-c3noc(=O)[nH]3)cc2)c(=O)n([C@H]2CC[C@@](C)(O)CC2)c2ncnn12` [Example 275, 4-(cis-4-hydroxy-4-methylcyclohexyl)-6-{[2′-(5-oxo-4,5-dihydro-1,2,4-oxadiazol-3-yl)biphenyl-4-yl]methyl}-7-propyl[1,2,4]triazolo[1,5-a]pyrimidin-5(4H)-one] were, in that order, 31% and 2.5 nM.
The like results for `CCCc1c(Cc2ccc(-c3ccccc3-c3noc(=O)[nH]3)cc2)c(=O)n([C@H]2CC[C@@H](Oc3ccc(C(C)=O)cc3)CC2)c2ncnn12` [Example 277, 4-[cis-4-(4-acetylphenoxy)cyclohexyl]-6-{[2′-(5-oxo-4,5-dihydro-1,2,4-oxadiazol-3-yl)biphenyl-4-yl]methyl}-7-propyl[1,2,4]triazolo[1,5-a]pyrimidin-5(4H)-one] were, in that order, 20% and 2.2 nM.
Consider `CCCc1c(Cc2ccc(-c3ccccc3-c3noc(=O)[nH]3)cc2)c(=O)n([C@H]2CC[C@H](Oc3ccc(C(C)=O)cc3)CC2)c2ncnn12` [Example 278, 4-[trans-4-(4-acetylphenoxy)cyclohexyl]-6-{[2′-(5-oxo-4,5-dihydro-1,2,4-oxadiazol-3-yl)biphenyl-4-yl]methyl}-7-propyl[1,2,4]triazolo[1,5-a]pyrimidin-5(4H)-one], for which the activation at 1 µM in assay [1] amounted to 22%. The concentration for half-maximal inhibition (IC50) in assay [2] amounted to 2.7 nM.
For the compound `CCCc1c(Cc2ccc(-c3ccccc3-c3noc(=O)[nH]3)cc2)c(=O)n([C@H]2CC[C@H](Oc3ccc(C(C)(C)O)cc3)CC2)c2ncnn12` [Example 280, 4-{trans-4-[4-(1-hydroxy-1-methylethyl)phenoxy]cyclohexyl}-6-{[2′-(5-oxo-4,5-dihydro-1,2,4-oxadiazol-3-yl)biphenyl-4-yl]methyl}-7-propyl[1,2,4]triazolo[1,5-a]pyrimidin-5(4H)-one], in assay [1], the activation at 1 µM stood at 16%. In assay [2], this compound returned an IC50 of 1.9 nM.
